The source of these data is paper PMC4914250, “Cancer therapeutic approach based on conformational stabilization of mutant p53 protein by small peptides” (Oncotarget, 2016).

Common to all, as to assay type: biochemical, human
One assay deals with mutp53^R175H. The assay can be described thus: ELISA of mutp53 conformation (PAb1620/PAb240), H1299-p53^R175H cell extract.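 As to Conform H1299: 0 means no effect and 6 means as or more effective than positive control.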 The following applies: for Conform H1299: score 0-6 compared to positive control, mutp53 conformation; for reactivity of p53^R175H with PAb1620 and PAb240: H1299-p53^R175H cell extract, Figure 2A. The source says: (§1) A total of close to 350 peptides, deduced from the phage sequences, were synthesized and subjected to several alternative complementary methods of semi high-throughput functional screening; we refer to these peptides as pCAPs (p53 conformation activating peptides). First, we used cell-free ELISA assays to evaluate the effect of individual peptides on mutp53 conformation and DNA binding in vitro. For conformation analysis (Figure 2A), microtiter plates were coated with PAb240, PAb1620 or PAb421 as control, then the effect of each peptide on reactivity of mutp53 with these antibodies was examined; WTp53 served as a positive control for PAb1620 reactivity.
Cell extracts were added to ELISA plates coated with the indicated antibodies to allow mutp53 to react with the peptides and antibodies. αp53-HRP Ab was used for assessment of p53 levels. Numbers represent ratio of absorbance between the PAb1620 and PAb240 samples. All reads were normalized to the control […] reading of each extract. MCF7 (WTp53) and H1299-mutp53^A135V (tsp53) cells were used as positive controls for the WTp53 conformation (1620/240 ratio equals or exceeds 5:1). […] 96 well plates were coated with anti-p53 antibody, cell extracts containing p53 were reacted with oligonucleotides that contain a p53RE consensus binding site, labeled with biotin, in the presence or absence (NT) of test peptides. Streptavidin-HRP is used to quantify the amount of oligos in the well. TMB assay was performed to determine bound mutp53 levels (450nm). MCF7 and the H1299-mutp53^A135V(TS) cells serve as positive controls for WTp53. C.and D. - Bar graphs illustrating the effect of various selected peptides on mut-p53 dependent expression on cell viability. […] D, ES2 cells expressing endogenous mutp53 (blue bars) and ES2 cells knocked out for p53 by CRISPR construct (light blue bars). Cell lines were treated with selected peptides, Cis-platinum was used as positive control for cell death. 48 hours after treatment, cells were washed with PBS, and the remaining attached cells were stained with Crystal violet and washed 4 times with PBS. Stained cells were dissolved in 10% acetic acid and plates were taken for optical density measurement at […]. TEXT PRINTED IN THE PICTURE: (A) pCAP1: 0.87 | (A) pCAP2: 0.53 | (A) pCAP3: 0.59 | (A) pCAP4: 0.59 | (A) pCAP5: 0.60 | (A) pCAP6: 0.75 | (A) pCAP23: 1.06 | (A) pCAP24: 1.44 | (A) pCAP36: 1.25 | (A) pCAP47: 1.54 | (A) pCAP54: 1.54 | (A) pCAP60: 2.73 | (A) pCAP68: 2.22 | (A) pCAP83: 1.56 | (A) pCAP97: 2.45 DOUBTS OF THE COPYIST ABOUT THIS PICTURE: Panel A: the numbers over the bars are printed very small, rotated and blurred, so 3, 5, 6, 8 and 9 cannot be told apart with certainty. All values are best readings: pCAP1 0.87, pCAP2 0.53, pCAP3 0.59, pCAP4 0.59, pCAP5 0.60, pCAP6 0.75, pCAP23 1.06, pCAP24 1.44, pCAP36 1.25, pCAP47 1.54, pCAP54 1.54, pCAP60 2.73, pCAP68 2.22, pCAP83 1.56, pCAP97 2.45 / Panel A: the picture prints no measure with the numbers over the bars, so they are given as bare numbers / Panel A: numbers are also printed over the controls, which are not substances and are left out of lines. Best readings: NT 0.60, 60° 30'' 0.48, 60° 1' 0.37, 60° 3' 0.13, 60° 10' 0.05, MCF7 3.32, H1299TS 3.25
Extracts were prepared at a concentration of 750ng/μl and then reacted for 2 hours with different peptides. Plates coated with the different antibodies were then washed and blocked, and extracts pre-incubated either with or without peptides were added for two additional hours. After removal of extracts, plates were washed and incubated with HRP-conjugated anti-p53 antibody. Finally, HRP activity was quantified by optical density at 450nm. MCF7 cells (expressing WTp53) and H1299-tsp53^A135V cells, stably expressing a temperature sensitive p53 mutant that has mutant conformation at 37°C but WT conformation at 32°C [31], were used as positive controls for the WTp53 conformation (1620/240 ratio 5:1). […]
A general note: An ELISA detects its analyte on a solid surface through an enzyme-linked reagent.

In assay [1] the test system is mutp53 in SK3 cell extract. The assay can be described thus: ELISA of mutp53 conformation, SK3.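 Also: 0 means no effect and 6 means as or more effective than positive control.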 The following applies: score 0-6 compared to positive control.
Text: as §1
(§2) 96-well plates were coated using 3 different anti p53 monoclonal antibodies, PAb421, PAb240 and PAb1620. Wells were incubated overnight (ON) with 100μl Ab (5μg/ml) in room temp (RT). The liquid was discarded, and the wells were washed 3 times with PBS, 200 μl. Next, blocking with 5% BSA in PBS for 2 hours (RT) was performed, followed by 3 washes in PBS. Samples of mutant and WT p53 proteins (100 μl, 10 μg/ml), together with control peptides or with test peptides 1-326 (5μg /ml), were incubated for 1.5 hours, and then added to the wells for1 hour at RT. 4 washes with PBST were performed. Next, HRP conjugated αp53 antibody (10μg/ml HAF1355 (R&D)) were added to the wells and incubated at RT for 1 hour. Plates were washed 3 times in PBST and TMB substrate solution (50μl each well, Thermo, (Cat. No. ES001-1L-K)) was added and incubated at 37°C for 20 min. The reaction was stopped with 2M Sulfuric acid (50μl). The absorbance was measured at 450 nm with a spectrophotometer. Protein concentration was determined by dividing the absorb an each sample to by the absorbance of PAb421 samples.

Assay [2] deals with mutp53 in BT549 cell extract. The assay can be described thus: ELISA of mutp53 conformation, BT549.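 Also: 0 means no effect and 6 means as or more effective than positive control.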 To be noted: score 0-6 compared to positive control.
Text: as §1, §2

Take HHPWTHHQRWS [pCAP-20]: the “Conform H1299” value in the assay on mutp53^R175H came out at 2. In assay [1], the “Conform SK3” value was 4.

As for LRCLLLLIGRVG [pCAP-24], the “Conform BT549” value in assay [2] is 2. In addition, the “Conform H1299” value in the assay on mutp53^R175H came out at 3. Besides, the “Conform SK3” value in assay [1] is 2.

Regarding YPTQGHLR [pCAP-36], the “Conform H1299” value with mutp53^R175H was determined as 5. Moreover, the “Conform SK3” value in assay [1] was 3.

HANLHHT [pCAP-87]: the “Conform BT549” value in assay [2] worked out at 2. Moreover, in the assay with mutp53^R175H, the “Conform H1299” value was determined as 3.

On to “EVTFRHSVV [pCAP-1, randomly selected peptide used as inert comparison]”, for which the “Conform BT549” value in assay [2] was 1.

For “IRILMFLIGCGRRRRRRRRR [pCAP-23R, pCAP-23 with poly arginine tail]”, the “Conform BT549” value in assay [2] came to 1. In addition, the “Conform H1299” value with mutp53^R175H is given as 2.

As to “SFILFIRRGRLGRRRRRRRRR [pCAP-60R, pCAP-60 with poly arginine tail]”, in assay [2], the “Conform BT549” value amounted to 2. Also, the “Conform SK3” value in assay [1] turned out to be 3.

For the substance SFILFIRRGRLG [pCAP-60], in assay [2], the “Conform BT549” value worked out at 1. Also, the “reactivity of p53^R175H with PAb1620 and PAb240” value (“reactivity of p53^R175H” for short) in the assay with mutp53^R175H is “increased the reactivity of p53^R175H with PAb1620 and decreased its reactivity with PAb240”. Further, the “Conform SK3” value in assay [1] is 2.

Take myr-RRIRDPRILLLHFD [pCAP-325]: in assay [2], the “Conform BT549” value amounted to 3. Further, the “Conform SK3” value in assay [1] turned out to be 3.

Take “myr-RRKILFIRLMHNKH [pCAP-227, myristoylated peptide, similarity to GAS2]”: the “Conform BT549” value in assay [2] was 4. The “Conform H1299” value in the assay with mutp53^R175H is given as 2. Further, in assay [1], the “Conform SK3” value came to 1.

For HSSHHHPVHSWN [pCAP-83], the “Conform H1299” value with mutp53^R175H was 4. Moreover, the “Conform SK3” value in assay [1] stood at 2.

Take “WNHHHSTPHPAHRRRRRR [pCAP-97R, pCAP-97 with poly arginine tail]”: in the assay on mutp53^R175H, the “Conform H1299” value amounted to 1. The “Conform SK3” value in assay [1] is given as 3.

Take “LRCLLLLIGRVGRRRRRRRR [pCAP-24R, pCAP-24 with poly arginine tail]”: the “Conform BT549” value in assay [2] was 2. Also, in the assay on mutp53^R175H, the “Conform H1299” value is listed as 3. Besides, the “Conform SK3” value in assay [1] was found to be 2.

For the substance YRRLLIGMMWRRRRRRRRR [pCAP-68], in the assay with mutp53^R175H, the “reactivity of p53^R175H” value is “increased the reactivity of p53^R175H with PAb1620 and decreased its reactivity with PAb240”; the “Conform H1299” value is 4. The “Conform SK3” value in assay [1] was 5.

As for IRILMFLIGCGR [pCAP-23], the “Conform BT549” value in assay [2] stood at 2. Also, the “Conform H1299” value in the assay with mutp53^R175H is recorded as 2.

As to LHSKTLVL [pCAP-17], the “Conform BT549” value in assay [2] came out at 2. In addition, in the assay on mutp53^R175H, the “Conform H1299” value was determined as 2.

IRGRIIR [pCAP-54]: in assay [2], the “Conform BT549” value was 2. Besides, in the assay with mutp53^R175H, the “reactivity of p53^R175H” value is “increased the reactivity of p53^R175H with PAb1620 and decreased its reactivity with PAb240”; the “Conform H1299” value was 3.

myr-RRLIVRILKLPNPPER [pCAP-242]: the “Conform BT549” value in assay [2] was 4. Further, the “Conform H1299” value in the assay with mutp53^R175H was 2.

For “IRGRIIRRRRRRRRR [pCAP-54R, pCAP-54 with poly arginine tail]”, in assay [2], the “Conform BT549” value amounted to 2. Moreover, the “Conform H1299” value with mutp53^R175H is 1.

WNHHHSTPHPAH [pCAP-97]: in the assay on mutp53^R175H, the “reactivity of p53^R175H” value was “increased the reactivity of p53^R175H with PAb1620 and decreased its reactivity with PAb240”; the “Conform H1299” value is given as 1. Further, the “Conform SK3” value in assay [1] is 3.

Consider “myr-PRVLPSPHTIHPSQYP [pCAP-229, myristoylated peptide, similarity to HIPK2]”, for which, in assay [1], the “Conform SK3” value is 2.

With myr-RRKHNKHRPEPDSDER [pCAP-221], the “Conform BT549” value in assay [2] amounted to 3. In addition, in assay [1], the “Conform SK3” value was 3.
